Each structure is given as a SMILES string.

A word on the Kd: it is the concentration at which binding is half-saturated. Low values mean higher affinity, high ones lower affinity.

Assay in all cases: Diffusion Ordered Spectroscopy (DOSY)
Common to all, as to conditions: 11 °C

Assay [1] addresses T1, Trans-sialidase [3-643,Y342H] (Trypanosoma cruzi, UniProt Q9BHJ5, Y342H).
T1 construct: 3-643
On the procedure: (§1) Solutions of TS, TSY342H, and TSD247A in 20 mM Tris-HCl were exchanged with deuterated PBS using four cycles of concentration with Amicon Ultra (50,000 nominal molecular weight limit; Millipore) and diluted in deuterated PBS. One hundred microliters of 0.1 mM protein solution (TcTSs or BSA) was titrated with the sialoside (0.2, 0.4, 0.6, 0.8, 1.0, 1.2, 1.6, and 2.0 mM) or lacto-N-neotetraose (0.1, 0.2, 0.3, 0.4, 0.5, 0.6, 0.7, and 0.9mM) as a negative control. The solution containing 0.1 mM protein plus sialoside was further titrated with Me-Lac (0.1, 0.2, 0.3, 0.4, 0.5, 0.6, 0.7, and 0.9 mM) in Shigemi tubes. NMR spectra were obtained at a probe temperature of 293 K on a Bruker DMX 600-MHz spectrometer equipped with a 5-mm self-shielded gradient triple resonance probe. All DOSY experiments were performed with a stimulated echo using bipolar gradient pulses for diffusion, one spoil gradient, and the 3-9-19 pulse sequence with gradients for water suppression according to the Bruker pulse program stebpgp1s19. The gradient duration was set to δ = 10 ms (protein-only experiments) and 20ms (protein⋅carbohydrate complexes experiments), and the diffusion time was set to Δ = 40 ms. Gradient strength was linearly varied in 16 steps from 0.6 to 6.7 G/cm. For each of the 16 gradient amplitudes, eight transients of 192 complex data points were acquired to a 10.0-ppm spectral width. The pulse repetition delay between each scan was 3 s.

Another assay concerns the target T2, Trans-sialidase [3-643] (Trypanosoma cruzi, UniProt Q9BHJ5).
T2 construct: 3-643
T2 sequence (Q9BHJ5 whole entry): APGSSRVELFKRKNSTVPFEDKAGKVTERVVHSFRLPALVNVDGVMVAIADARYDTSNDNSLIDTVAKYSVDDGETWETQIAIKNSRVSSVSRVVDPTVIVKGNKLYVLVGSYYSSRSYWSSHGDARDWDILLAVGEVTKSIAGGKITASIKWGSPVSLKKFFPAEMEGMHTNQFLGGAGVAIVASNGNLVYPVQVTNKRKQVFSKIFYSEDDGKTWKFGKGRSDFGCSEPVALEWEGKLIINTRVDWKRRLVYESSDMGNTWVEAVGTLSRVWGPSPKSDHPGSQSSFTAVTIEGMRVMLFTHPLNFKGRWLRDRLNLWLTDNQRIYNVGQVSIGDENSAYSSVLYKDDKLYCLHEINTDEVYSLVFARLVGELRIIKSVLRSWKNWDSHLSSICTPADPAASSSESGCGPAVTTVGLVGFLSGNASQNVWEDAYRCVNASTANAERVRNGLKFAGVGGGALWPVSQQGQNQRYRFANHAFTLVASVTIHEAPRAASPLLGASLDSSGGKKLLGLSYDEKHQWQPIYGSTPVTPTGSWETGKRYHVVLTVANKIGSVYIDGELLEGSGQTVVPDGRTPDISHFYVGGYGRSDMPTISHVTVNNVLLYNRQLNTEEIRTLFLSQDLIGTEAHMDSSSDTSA
On the procedure:
as §1

Assay [2] has as its target T3, Trans-sialidase [3-643,D247A] (Trypanosoma cruzi, UniProt Q9BHJ5, D247A).
T3 construct: 3-643
As for the experimental part: as §1

T1 sequence (Q9BHJ5 3-643 Y344H): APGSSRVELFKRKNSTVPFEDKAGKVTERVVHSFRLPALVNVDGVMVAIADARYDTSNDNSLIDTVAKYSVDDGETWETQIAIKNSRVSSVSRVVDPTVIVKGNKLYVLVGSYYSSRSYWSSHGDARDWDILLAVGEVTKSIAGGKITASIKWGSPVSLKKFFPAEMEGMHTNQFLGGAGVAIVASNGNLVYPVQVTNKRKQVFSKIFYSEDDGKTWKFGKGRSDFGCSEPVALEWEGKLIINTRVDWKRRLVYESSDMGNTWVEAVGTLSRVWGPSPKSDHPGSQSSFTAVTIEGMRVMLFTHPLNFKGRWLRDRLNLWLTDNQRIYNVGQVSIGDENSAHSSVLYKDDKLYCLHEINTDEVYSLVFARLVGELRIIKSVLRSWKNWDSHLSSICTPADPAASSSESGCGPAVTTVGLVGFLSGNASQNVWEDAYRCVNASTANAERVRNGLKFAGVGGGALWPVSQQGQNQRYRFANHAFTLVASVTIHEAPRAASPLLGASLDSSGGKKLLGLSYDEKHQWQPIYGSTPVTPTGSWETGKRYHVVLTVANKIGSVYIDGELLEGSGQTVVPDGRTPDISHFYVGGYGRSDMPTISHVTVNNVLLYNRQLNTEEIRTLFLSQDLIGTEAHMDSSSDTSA
T3 sequence (Q9BHJ5 3-643 D249A): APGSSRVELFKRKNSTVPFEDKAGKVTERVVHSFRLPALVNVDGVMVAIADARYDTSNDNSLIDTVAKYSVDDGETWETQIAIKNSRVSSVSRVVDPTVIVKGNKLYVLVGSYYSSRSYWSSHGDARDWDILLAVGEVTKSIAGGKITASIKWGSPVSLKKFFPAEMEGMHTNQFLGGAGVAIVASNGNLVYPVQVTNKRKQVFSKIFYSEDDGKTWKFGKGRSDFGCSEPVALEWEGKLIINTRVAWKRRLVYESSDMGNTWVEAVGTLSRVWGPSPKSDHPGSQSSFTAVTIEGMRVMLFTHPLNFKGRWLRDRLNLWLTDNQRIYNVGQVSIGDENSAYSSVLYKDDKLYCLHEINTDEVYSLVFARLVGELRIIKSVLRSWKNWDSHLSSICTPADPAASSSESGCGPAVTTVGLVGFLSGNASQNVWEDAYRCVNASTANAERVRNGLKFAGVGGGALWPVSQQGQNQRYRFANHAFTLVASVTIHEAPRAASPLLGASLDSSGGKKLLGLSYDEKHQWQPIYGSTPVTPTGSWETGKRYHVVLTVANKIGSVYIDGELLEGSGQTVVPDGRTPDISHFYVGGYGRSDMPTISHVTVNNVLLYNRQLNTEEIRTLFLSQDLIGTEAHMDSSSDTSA

For the compound `CO[C@@H]1O[C@H](CO)[C@@H](O[C@@H]2O[C@H](CO)[C@H](O)[C@H](O)[C@H]2O)[C@H](O)[C@H]1O` [CHEBI:610092], the Kd in assay [1] is 52 µM; on Trans-sialidase [3-643], 15 µM.

As for `COC1OC(CO)C(O)C(SC2(C(=O)O)CC(O)C(NC(C)=O)C([C@H](O)[C@H](O)CO)O2)C1O` (stereo not given in full) [NeuSGal], the Kd on Trans-sialidase [3-643] came out at 456 µM.

`CC(=O)NC1C(O)CC(OC2C(O)C(CO)OC(OC3C(CO)OC(O)C(O)C3O)C2O)(C(=O)O)OC1[C@H](O)[C@H](O)CO` (stereo partly drawn) [α2,3'-sialyllactose]: the figures for the Kd in assay [2] and in assay [1] were 107 µM and 234 µM, respectively.

For the origin of these results see BindingDB's records for doi:10.1074/jbc.M112.399303 (Universidade Federal do Rio de Janeiro, 2014).
